Reference: US6399570B1, “Antimicrobial/endotoxin neutralizing polypeptide” (priority 1999, dated 2002)

Key:
S. abortus LPS = assay: Limulus ELISA, ENC50 against S. abortus LPS; assay type: biochemical, Salmonella abortus equi; conditions: endotoxin 200 EU/ml; mean +/− SD
Experimental: The peptide-mediated inhibition of endotoxin-induced Limulus amebocyte lysate (LAL) coagulation was measured with a sensitive LAL assay (Zhang et al., J. Clin. Microbiol. 32: 416-422 (1994)). Limulus ELISA is an endotoxin assay based on activation of the LAL coagulation by endotoxin and detection of the generated peptide-C immunoreactivity with an ELISA using a monoclonal antibody to the polypeptide. Endotoxin was defined to be neutralized when it lost its ability to activate the LAL enzymes. The 50% endotoxin-neutralizing concentration (ENC50) reflects the potency of an anti-endotoxin agent; a low ENC50 indicates high potency. Table 2 lists the determined ENC50 value of each anti-endotoxin agent against lipid A and four different types of LPS. The potency of each anti-endotoxin agent varied depending on the type of endotoxin. […] The only difference between the sequence of LF-33 and LF-27 is that LF-27 lacks the first six residues (GRRRRS) at the N-terminus of LF-33. Remarkably, this deletion led to dramatic loss of the endotoxin-neutralizing capacity of the polypeptide in this assay. Binding of serum proteins to endotoxin neutralizes the endotoxin activity in this assay by preventing endotoxin from activating LAL (Emancipator et al., Infect. Immun. 60: 596-601 (1992)).
LPS. […] LPS (purity >99%) from Neisseria meningitidis was prepared from the group B strain #6275 and its potency was 25 EU/ng. […] The potency of the above endotoxin was determined with the Limulus enzyme-linked immunosorbent assay (ELISA, 43) in comparison with US Pharmacopeia reference standard endotoxin EC-5.
Briefly, 25 μl endotoxin solution (200 EU/ml) was mixed with an equal volume of test materials in a series of two-fold dilution in 0.15 M NaCl in a sterile 96-well tissue culture plate (Nunc A/S, Roskilde, Denmark), and incubated at 37° C. for 1 h in a dry-air incubator. […] The endotoxin activity was then quantified with the use of Limulus ELISA (Zhang et al., J. Clin. Microbiol. 32: 416-422 (1994)). […] The high sensitivity of the assay allowed for very low levels of the endotoxin activity to be detected. […]

[1] = test system: lipid A from E. coli 0113; assay: LAL assay, neutralization of lipid A endotoxin activity (FIG. 6); assay type: biochemical; conditions: lipid A 30 ng/ml
Experimental: The lipid A region of the LPS molecule is primarily responsible for the inflammatory and toxic effects of LPS. When LPS is released from the microbe, the lipid A portion may become more accessible. The following assays were performed to determine the potential of various amino-terminal LF polypeptides to neutralize the endotoxic activity of the lipid A portion of LPS. LF, the 6 kDa fragment of LF, LF-33, LF-27, and polymyxin B were each tested for the ability to neutralize the endotoxin activity of lipid A from E. coli 0113 (30 ng/ml), using a LAL assay. […] The endotoxin activity of the smaller fragments of LF indicate that endotoxin-neutralizing activity of these small polypeptides is masked when in the context of the intact LF molecule.

E. coli 0111 = assay: Potentiation of Rifampicin by LF polypeptides; conditions: 5 μM polypeptide + 0.9 μg/ml rifampicin, 6 hr
Experimental: E. coli cultures were exposed to sub-optimal doses of Rifampicin in the presence or absence of sub-optimal doses of the indicated polypeptides (FIG. 5), and were incubated for 6 hours, at which point CFU were determined.
E. coli 0111 were grown overnight as described above. Overnight cultures were then diluted 1:16,000 in 1% BP/PBS containing 0.9 μg/ml Rifampicin (Sigma-Aldrich Fine chemicals) and 5 μM LF polypeptides as indicated. Control cultures were those not exposed to any polypeptide. The diluted cultures were then incubated at 37° C. for 6 hr with aeration by shaking. The number of viable bacteria were then determined by dilution plating samples from each group and subsequently counting colony forming units (CFU). All values represent the average of duplicate independent experiments.

Compound	ENC50 against S. abortus LPS (S. abortus LPS)	IC50 (S. abortus LPS)	lipid A neutralizing activity [1]	effect on the antimicrobial activity of rifampicin (viable bacteria) (E. coli 0111)
CSCC[C@H](NC(=O)[C@H](CC(N)=O)NC(=O)[C@H](CCCNC(=N)N)NC(=O)[C@H](CCC(N)=O)NC(=O)[C@H](Cc1c[nH]c2ccccc12)NC(=O)[C@H](CCC(N)=O)NC(=O)[C@H](Cc1ccccc1)NC(=O)[C@H](CS)NC(=O)[C@H](CCCCN)NC(=O)[C@@H](NC(=O)[C@H](C)NC(=O)[C@H](CCC(=O)O)NC(=O)[C@@H]1CCCN1C(=O)[C@H](CCC(N)=O)NC(=O)[C@H](CO)NC(=O)[C@@H](NC(=O)[C@H](C)NC(=O)[C@H](CS)NC(=O)[C@H](Cc1c[nH]c2ccccc12)NC(=O)[C@H](CCC(N)=O)NC(=O)[C@@H](N)C(C)C)C(C)C)[C@@H](C)O)C(=O)N[C@@H](CCCNC(=N)N)C(=O)N[C@@H](CCCCN)C(=O)N[C@H](C(=O)N[C@@H](CCCNC(=N)N)C(=O)NCC(=O)N1CCC[C@H]1C(=O)O)C(C)C [LF-27]	no detectable activity	> 300 µM	neutralized lipid A	no significant effect
6 kDa polypeptide: 6 kDa fragment produced by cathepsin D digestion of human LF, amino acids 1-49 of SEQ ID NO: 2 (GRRRRSVQWCAVSQPEATKCFQWQRNMRKVRGPPVSCIKRDSPIQCIQA; listed as Homo sapiens)			neutralized lipid A	more than three orders of magnitude
